Source: PubChem BioAssay (NCI)
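Exposure lasted 48 hours, with cells grown in 96-well plates and compounds tested at five concentrations. The concentration for full growth arrest is given as TGI.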

What was measured:
Test in all cases: DTP human tumour cell line panel, 48 h
[1] = tested on: UO-31 renal
[2] = tested on: K-562 leukemia
[3] = tested on: ACHN renal
[4] = tested on: OVCAR-8 ovarian
[5] = tested on: NCI-H226 lung
[6] = tested on: TK-10 renal
[7] = tested on: A498 renal
[8] = tested on: NCI/ADR-RES ovarian
[9] = tested on: HCT-15 colon
[10] = tested on: RXF 393 renal
[11] = tested on: OVCAR-5 ovarian
[12] = tested on: MDA-MB-231 breast
[13] = tested on: NCI-H460 lung
[14] = tested on: IGROV1 ovarian
[15] = tested on: MCF7 breast
[16] = tested on: SF-268 CNS
[17] = tested on: NCI-H23 lung
[18] = tested on: PC-3 prostate
[19] = tested on: HOP-62 NSCLC
[20] = tested on: U251 CNS
[21] = tested on: SK-MEL-5 melanoma
[22] = tested on: MOLT-4 leukemia
[23] = tested on: UACC-257 melanoma
[24] = tested on: HCC-2998 colon
[25] = tested on: SF-539 CNS
[26] = tested on: MDA-N
[27] = tested on: SR leukemia
[28] = tested on: HOP-92 NSCLC
[29] = tested on: HT29 colon
[30] = tested on: RPMI-8226 leukemia
[31] = tested on: SF-295 CNS
[32] = tested on: BT-549 breast
[33] = tested on: HCT-116 colon
[34] = tested on: KM12 colon
[35] = tested on: CAKI-1 renal
[36] = tested on: SK-MEL-2 melanoma
[37] = tested on: OVCAR-3 ovarian
[38] = tested on: A549 NSCLC
[39] = tested on: OVCAR-4 ovarian
[40] = tested on: LOX IMVI melanoma
[41] = tested on: DU-145 prostate
[42] = tested on: SK-MEL-28 melanoma
[43] = tested on: SNB-75 CNS
[44] = tested on: 786-0 renal
[45] = tested on: M14 melanoma
[46] = tested on: MDA-MB-435
[47] = tested on: NCI-H522 lung
[48] = tested on: T-47D breast
[49] = tested on: HS 578T breast
[50] = tested on: SW-620 colon
[51] = tested on: EKVX NSCLC
[52] = tested on: MALME-3M melanoma
[53] = tested on: SNB-19 CNS
[54] = tested on: SN12C renal
[55] = tested on: COLO 205 colon
[56] = tested on: HL-60(TB) leukemia
[57] = tested on: SK-OV-3 ovarian
[58] = tested on: UACC-62 melanoma
[59] = tested on: CCRF-CEM leukemia

With `C=CC(c1ccccc1)C1(O)c2cccc(O)c2C(=O)c2c(O)cccc21` (configuration not stated) the TGI [1] was 41.6 µM, the TGI [2] was 37.7 µM and the TGI [3] was 31.9 µM. The TGI [4] was 43 µM, the TGI [5] was 39.8 µM and the TGI [6] was 38.6 µM. It also gave a TGI [7] of 34.6 µM, a TGI [8] of 31.2 µM and a TGI [9] of 29.4 µM. The TGI [10] was 29.1 µM, the TGI [11] was 54.2 µM and the TGI [12] was 36.7 µM. The TGI [13] was 36.7 µM, the TGI [14] was 32.6 µM and the TGI [15] was 37.8 µM. The TGI [16] was 36.6 µM, the TGI [17] was 30.8 µM and the TGI [18] was 28.1 µM. For the same molecule, the TGI [19] was 41.1 µM, the TGI [20] was 24.5 µM and the TGI [21] was 32 µM. For the same molecule, the TGI [22] was 46.8 µM, the TGI [23] was 40.2 µM and the TGI [24] was 22.9 µM. The TGI [25] was 84.5 µM, the TGI [26] was 20.7 µM and the TGI [27] was 24.2 µM. The TGI [28] was 30.5 µM, the TGI [29] was 25.3 µM and the TGI [30] was 54.8 µM. For the same molecule, the TGI [31] was 40.4 µM, the TGI [32] was 34.8 µM and the TGI [33] was 24.7 µM. For the same molecule, the TGI [34] was 40.9 µM, the TGI [35] was 42.5 µM and the TGI [36] was 26.4 µM. The TGI [37] was 38.9 µM, the TGI [38] was 32.9 µM and the TGI [39] was 33.2 µM. It also gave a TGI [40] of 29.9 µM, a TGI [41] of 28.8 µM and a TGI [42] of 41.4 µM. It also gave a TGI [43] of 41.8 µM, a TGI [44] of 31.1 µM and a TGI [45] of 34.5 µM. It also gave a TGI [46] of 22 µM, a TGI [47] of 30.1 µM and a TGI [48] of 42.3 µM. It also gave a TGI [49] of 34.8 µM, a TGI [50] of 37 µM and a TGI [51] of 38.6 µM.
`O=C1NC(Cc2c[nH]c3ccccc23)C(=O)N2C(c3ccccc3)c3[nH]c4ccccc4c3C[C@@H]12` (some centres not stated) was tested, and the TGI [1] was 67.3 µM, the TGI [2] was 55.1 µM and the TGI [3] was 89.2 µM. For the same molecule, the TGI [52] was 33.7 µM, the TGI [4] was 82.7 µM and the TGI [5] was 88.9 µM. The TGI [6] was 91.4 µM, the TGI [7] was > 100 µM and the TGI [8] was 58.3 µM. For the same molecule, the TGI [53] was > 100 µM, the TGI [9] was 54.3 µM and the TGI [10] was 34.3 µM. The TGI [11] was 45.2 µM, the TGI [54] was 33.3 µM and the TGI [12] was 42.2 µM. For the same molecule, the TGI [14] was 50.1 µM, the TGI [15] was > 100 µM and the TGI [16] was 95.7 µM. For the same molecule, the TGI [55] was 45.9 µM, the TGI [56] was 50.8 µM and the TGI [17] was 57.1 µM. For the same molecule, the TGI [18] was 53.8 µM, the TGI [19] was 38.2 µM and the TGI [57] was > 100 µM. For the same molecule, the TGI [20] was 39.2 µM, the TGI [21] was 32.7 µM and the TGI [22] was 42.2 µM. The TGI [23] was 51.6 µM, the TGI [26] was 38.9 µM and the TGI [27] was 37.7 µM. For the same molecule, the TGI [28] was 53.7 µM, the TGI [29] was 48.6 µM and the TGI [30] was 50.8 µM. For the same molecule, the TGI [31] was 33.1 µM, the TGI [32] was 46.4 µM and the TGI [33] was 30.6 µM. For the same molecule, the TGI [34] was 40 µM, the TGI [35] was 55.9 µM and the TGI [36] was 46.5 µM. For the same molecule, the TGI [37] was 35.7 µM, the TGI [38] was > 100 µM and the TGI [39] was > 100 µM. For the same molecule, the TGI [58] was 34.7 µM, the TGI [40] was 40.6 µM and the TGI [41] was > 100 µM. The TGI [42] was > 100 µM, the TGI [44] was 39.1 µM and the TGI [45] was 49.1 µM. For the same molecule, the TGI [46] was 39.7 µM, the TGI [47] was 45.5 µM and the TGI [48] was > 100 µM. For the same molecule, the TGI [49] was 40.6 µM, the TGI [50] was > 100 µM and the TGI [51] was 65.2 µM.
In the case of `NC(=S)N/N=C(/C(=O)Nc1nc2ccc([N+](=O)[O-])cc2s1)C1C(=O)NC(=S)NC1=O`, the TGI [1] is reported as > 100 µM, the TGI [2] is reported as > 100 µM and the TGI [3] is reported as > 100 µM. The TGI [4] was > 100 µM, the TGI [5] was > 100 µM and the TGI [7] was > 100 µM. For the same molecule, the TGI [8] was > 100 µM, the TGI [53] was > 100 µM and the TGI [9] was > 100 µM. The TGI [10] was > 100 µM, the TGI [11] was > 100 µM and the TGI [54] was > 100 µM. For the same molecule, the TGI [12] was > 100 µM, the TGI [13] was > 100 µM and the TGI [15] was > 100 µM. The TGI [16] was > 100 µM, the TGI [55] was > 100 µM and the TGI [56] was > 100 µM. For the same molecule, the TGI [17] was > 100 µM, the TGI [18] was > 100 µM and the TGI [57] was > 100 µM. The TGI [20] was > 100 µM, the TGI [22] was > 100 µM and the TGI [23] was > 100 µM. For the same molecule, the TGI [24] was > 100 µM, the TGI [25] was > 100 µM and the TGI [26] was > 100 µM. The TGI [27] was > 100 µM, the TGI [28] was > 100 µM and the TGI [29] was > 100 µM. For the same molecule, the TGI [30] was > 100 µM, the TGI [31] was > 100 µM and the TGI [32] was > 100 µM. The TGI [33] was > 100 µM, the TGI [34] was > 100 µM and the TGI [35] was > 100 µM. For the same molecule, the TGI [36] was > 100 µM, the TGI [37] was > 100 µM and the TGI [38] was > 100 µM. For the same molecule, the TGI [39] was > 100 µM, the TGI [58] was > 100 µM and the TGI [40] was > 100 µM. For the same molecule, the TGI [41] was > 100 µM, the TGI [42] was > 100 µM and the TGI [44] was > 100 µM. The TGI [45] was > 100 µM, the TGI [46] was > 100 µM and the TGI [59] was > 100 µM. The TGI [48] was > 100 µM, the TGI [49] was 74.3 µM and the TGI [50] was > 100 µM.
`CCOC(=O)c1cc2ncccc2c2ccccc12` was tested, and the TGI [1] was > 100 µM, the TGI [2] was > 100 µM and the TGI [3] was > 100 µM. For the same molecule, the TGI [52] was > 100 µM, the TGI [4] was > 100 µM and the TGI [5] was > 100 µM. The TGI [6] was > 100 µM, the TGI [8] was > 100 µM and the TGI [53] was > 100 µM. The TGI [9] was > 100 µM, the TGI [10] was > 100 µM and the TGI [11] was > 100 µM. The TGI [54] was > 100 µM, the TGI [12] was > 100 µM and the TGI [13] was > 100 µM. The TGI [14] was > 100 µM, the TGI [15] was > 100 µM and the TGI [16] was > 100 µM. The TGI [55] was > 100 µM, the TGI [56] was > 100 µM and the TGI [17] was > 100 µM. For the same molecule, the TGI [18] was > 100 µM, the TGI [19] was > 100 µM and the TGI [57] was > 100 µM. For the same molecule, the TGI [20] was > 100 µM, the TGI [21] was > 100 µM and the TGI [22] was > 100 µM. The TGI [23] was > 100 µM, the TGI [24] was > 100 µM and the TGI [26] was > 100 µM. The TGI [27] was > 100 µM, the TGI [28] was > 100 µM and the TGI [29] was > 100 µM. For the same molecule, the TGI [30] was > 100 µM, the TGI [31] was > 100 µM and the TGI [32] was > 100 µM. The TGI [33] was > 100 µM, the TGI [34] was > 100 µM and the TGI [35] was > 100 µM. The TGI [36] was > 100 µM, the TGI [37] was > 100 µM and the TGI [38] was > 100 µM. The TGI [39] was > 100 µM, the TGI [58] was > 100 µM and the TGI [40] was > 100 µM. For the same molecule, the TGI [41] was > 100 µM, the TGI [42] was > 100 µM and the TGI [43] was > 100 µM. The TGI [44] was > 100 µM, the TGI [45] was > 100 µM and the TGI [46] was > 100 µM. The TGI [47] was > 100 µM, the TGI [59] was > 100 µM and the TGI [48] was > 100 µM. The TGI [49] was > 100 µM and the TGI [51] was > 100 µM.
